Data set [1] in a line: MicroPET studies in the brain of nonhuman primate. Format: in vivo. Particulars: male adult cynomolgus macaca. The method, then:
9.93 mCi of [^18F]TZ61-44 was injected into a male adult cynomolgus macaca (9.25 Kg) 10.57 mCi of [^11C]TZ55-107 was injected into was injected into a male adult cynomolgus macaca (9.40 Kg) A simplified reference tissue model (SRTM) and spatially-constraint linear regression algorithm was used to generate R1 and DVR images (FIGS. 18A and 18B).
FIGS. 19A and 19B graphically depict the uptake of labeled TZ55-107 and TZ61-44 in the animals. [^18F]TZ61-44 had highest cortical uptake (SUV) of ˜3.48 at 4 min and the uptake ratio at 4 min versus 120 min reached ˜4.2 (FIG. 19A); [^11C]TZ55-107 had highest cortical uptake of ˜6.40 at 4 min, and the uptake ratio at 4 min versus 120 min reached ˜6.30 (FIG. 19B).

The target in data set [2] is Banner PD-seeded α-synuclein fibrils (Homo sapiens (Human), UniProt P37840). The data set can be described thus: Homologous competition radioligand binding assay, PD-seeded fibrils. The method, then: The equilibrium dissociation constant (Kd) for a series of compounds was determined using direct radioactive competitive binding assays (homologous or heterologous) with either recombinant α-synuclein fibrils or brain tissue homogenates from AD cases.
Recombinant protein was produced in E. coli using protocols based on previously described methods for α-synuclein [Giasson, B. I., et al., “Mutant and wild type human alpha-synucleins assemble into elongated filaments with distinct morphologies in vitro,” 1999, J Biol. Chem., 274:7619-7622; Huang, C., et al., “A new method for purification of recombinant human alpha-synuclein in Escherichia coli,” 2005, Protein Expr Purif, 42:173-177; Yu, L., et al, “Synthesis and in vitro evaluation of á-synuclein ligands,” 2012, Bioorg. Med. Chem., 20:4625-4634] and tau [Li, W., et al., “Characterization of two VQIXXK motifs for tau fibrillization in vitro,” 2006, Biochemistry, 45:15692-15701]. BL21(DE3)RIL E. coli were transformed with a pRK172 bacterial expression plasmid containing the human α-synuclein coding sequence. […]. Overnight cultures were centrifuged at 3,900×g for 10 min at 25° C. and the bacterial pellets were resuspended by gentle vortexing in 20 ml osmotic shock buffer (30 mM Tris-HCl, 2 mM EDTA, 40% Sucrose, pH 7.2) and then incubated at room temperature for 10 min. The cell suspension was then centrifuged at 8,000×g for 10 min at 25° C. and the pellet was resuspended in 22.5 ml cold H2O before adding 9.4 μl 2 M MgCl2 to each tube. The suspension was incubated on ice for 3 min prior to centrifugation at 20,000×g for 15 min at 4° C. After the supernatant was transferred to a fresh tube, streptomycin was added to a final concentration of 10 mg/ml and centrifuged at 20,000×g for 15 min at 4° C. The supernatant from this step was collected and dithiothreitol (DTT) and Tris-HCl pH 8.0 were added to final concentrations of 1 mM and 20 mM respectively, before boiling for 10 min to precipitate heat-sensitive proteins, which were pelleted at 20,000×g for 15 min at 4° C. The supernatant was collected and filtered through a 0.45 μm surfactant-free cellulose acetate filter (Corning) before loading onto a 1 ml DEAE Sepharose column equilibrated in 20 mM Tris-HCl pH 8.0, 1 mM EDTA, and 1 mM DTT. The DEAE column was washed with 20 mM Tris-HCl pH 8.0, 1 mM EDTA, 1 mM DTT before eluting α-synuclein protein in 20 mM Tris-HCl pH 8.0 buffer with 1 mM EDTA, 1 mM DTT and 0.3 M NaCl. Purified α-synuclein protein was dialyzed overnight in 10 mM Tris-HCl pH 7.6, 50 mM NaCl, 1 mM DTT.
Purified recombinant α-synuclein monomer (2 mg/ml) was incubated in 20 mM Tris-HCl, pH 8.0, 100 mM NaCl for 72 h at 37 C with shaking at 1000 rpm in an Eppendorf Thermomixer. […] The concentration of α-synuclein monomer in the supernatant was determined in a BCA protein assay according to the manufacturer's instructions, using a bovine serum albumin (BSA) standard curve. The measured decrease in α-synuclein monomer concentration was used to determine the concentration of fibrils in the 72 h fibril reaction mixture. […]
These direct binding assays used a fixed concentration of either fibrils or PD/AD tissue and the radioligand (e.g., [^18F]28) and varying concentration ranges of corresponding homologous non-radiolabeled standard reference compound. […] Reactions were incubated at 37° C. for 1 h before quantifying bound radioligand. […]

A short description of the next data set: Experimental Log P. It counts as physicochemical.

Values joined by “and” are separate entries in the source; they are usually repeats but may differ in a detail not shown here. Identical values can stand only once.

Consider `COc1ccc(Nc2ccc3cc(OCCF)ccc3n2)cn1` [TZ61-44], for which the “highest cortical uptake (SUV)” value in data set [1] (brain cortex, at 4 min) is around 3.48 SUV. The “uptake ratio at 4 min versus 120 min” value in data set [1] (brain cortex) is around 4.2. For the same compound, the “blood brain barrier penetration” value in data set [1] was “able to penetrate the blood brain barrier”. Besides, the Kd in data set [2] (25 nM Banner PD-seeded fibrils) was 5.4 nM and 9.7 nM and 12 nM and 25 nM and 26 nM; in data set [2] (75 nM Banner PD-seeded fibrils), 30 nM. In “Experimental Log P”, the logP was 1.97 ± 0.4.

Values taken from patent US12012394B2, “Alpha-synuclein ligands” (Washington University, priority 2018, dated 2024).
